Data reported in the NIST ThermoML archive (doi:10.1021/je050001c).

Conditions: 101.33 kPa, Liquid; for viscosity: Falling or rolling sphere viscometry

CCCCCCOC(C)=O [hexyl ethanoate]
Conditions | mass density [kg/m3] | viscosity [mPa·s]
293.15 K | 872.9 | 1.118
298.15 K | 867.3 | 1.036
303.15 K | 862.6 | 0.962
308.15 K | 858.33 | 0.895
313.15 K | 854.9 | 0.836
318.15 K | 848.84 | 0.782
323.15 K | 844.21 | 0.733
328.15 K | 839.64 | 0.689
333.15 K | 835.15 | 0.649
338.15 K | 831.4 | 0.612
343.15 K | 826.3 | 0.579
